Consider five molecules from US9920387B2, “Strain of marine oil-degrading bacteria, compounds obtained by fermentation and their applications” (THIRD INSTITUTE OF OCEANOGRAPHY,STATE OCEANIC ADMINISTRATION, priority 2014, dated 2018).

Data set [1] has as its system hepatoma cells 7402. The data set is described as follows: Cytotoxic activity test, Cell Counting Kit-8. In kind it is cell-based. To be noted: 100 ug/ml, 48 hours. From the text: (§1) Cytotoxic activity test method: measure cytotoxic activity using a Cell Counting Kit-8 (CCK-8 kit for short and of Dojindo Laboratories, Japan), namely, […]. The human CCK octapeptide ELISA is a quick high-sensitivity detection kit based on WST-8 and widely applied to cell proliferation and cytotoxic activity. WST-8 is a compound similar to the MTT. With the presence of electronic coupling reagent, WST-8 can be reduced by some dehydrogenases in mitochondria and produce orange formazan. The more and faster the cell proliferation is, the deeper the color; the greater the cytotoxicity is, the lighter the color. For the same cells, the color depth has a linear relationship with the number of cells. Solvent DMSO is used in control group, and pure lysine ester produced by strain Alcanivorax dieselolei T6-6 dissolved in DMSO are used in experimental group. Cells are hepatoma cells 7402 and normal hepatocytes 7702 (available from Sino-US Joint Venture Biohermes Biomedical Technology Ltd). Medicinal concentration is 100 ug/ml, and operation is taken according to kit instruction, with each step repeated three times. After medication, […] is detected in cellular fluid after culturing for 48 hours. Cell toxicity results are shown in Table 8: The medicine-to-cell suppression rate=[negative group (DMSO)−experimental group (dosed)]/negative group (DMSO). […] Accordingly, the active substances of lysine ester generated by the strain Alcanivorax dieselolei T6-6 have better cytotoxic activity.
(Formazan colour is commonly taken as a measure of viable cells.)

Data set [2] deals with normal hepatocytes 7702. Description: Cytotoxic activity test, Cell Counting Kit-8. In kind it is cell-based. The conditions noted are these: 100 ug/ml, 48 hours.
Description: as §1

Data set [3] has as its system Bacillus rhizosphaerae. The data set is described as follows: Antibacterial activity, filter paper method. The data set is classed as cell-based. To be noted: 28° C. From the text:
(§2) Antibacterial activity test method: use filter paper method to detect antibacterial activity of biosurfactant produced by fermentation of strain Alcanivorax dieselolei T6-6. The indicator bacteria are Gram-negative bacteria, Gram-positive bacteria, endophytic pathogenic fungus in tea tree and yeasts. Specific steps: coat the well-shaken indicator bacteria on the culture plate, stick filter paper on each scribe region, and drip surfactant on filter paper. The control group is the methanol solvent of same amount. After bacteria are inverted cultured in constant temperature incubation at 28° C. for a certain period (different indicator bacteria have different growth cycles; bacteria grow quickly, but endophytic fungus in tea tree should grow 3-5 days), and observe the results to detect inhibition zone. If there is an inhibition zone, its size should be measured.

For data set [4], the system named is Lysinibacillus sphaericus. The data set is described as follows: Antibacterial activity, filter paper method. In kind it is cell-based. To be noted: 28° C.
Description: as §2

Data set [5] deals with Rhodotorula mucilaginosa. Description: Antibacterial activity, filter paper method. To be noted: 28° C. In kind it is cell-based.
Description: as §2

Data set [6] concerns Bacillus safensis. The data set is described as follows: Antibacterial activity, filter paper method. In kind it is cell-based. To be noted: 28° C.
Description: as §2

In data set [7] the test system is Phomaexigua var. exigua. The data set is described as follows: Antibacterial activity, filter paper method. To be noted: 28° C. The data set is classed as cell-based.
Description: as §2

Data set [8] deals with Pestalotiopsistheae. Description: Antibacterial activity, filter paper method. The data set is classed as cell-based. To be noted: 28° C.
Description: as §2

For data set [9], the system named is Bacillus plakortidis. Description: Antibacterial activity, filter paper method. In kind it is cell-based. The conditions noted are these: 28° C.
Description: as §2

The subject of data set [10] is Ornithinibacillus bavariensis. Description: Antibacterial activity, filter paper method. The conditions noted are these: 28° C. In kind it is cell-based.
Description: as §2

Data set [11] has as its system Bacillus thuringiensis. Description: Antibacterial activity, filter paper method. To be noted: 28° C. In kind it is cell-based.
Description: as §2

Data set [12] can be described thus: Liquid surface tension (automatic interfacial tensiometer). The data set is classed as physicochemical. The procedure:
Test method of liquid surface tension: Inoculate the Alcanivorax dieselolei T6-6 single bacterium into MSM medium on clean workbench (with 2% n-hexadecane as the sole carbon source), and culture it in constant temperature air bath shaker incubator (28° C., 200 rpm/min) until thalli obviously grow (about 3 to 5 days), during which take out 10 ml fermentation liquid every 24 hours, and measure its surface tension values using automatic interfacial tensiometer (Manufacturer: Chengde Precision Testing Machine Co., Ltd; Model: JZ-200-a automatic interface tensiometer). […] (For refrigeration of supernatant and hydrophobic layer stratified after centrifugation, the surface tension should be measured when it gets to the room temperature. Thus, the result is comparability and credibility). When measuring liquid surface tension, pour 10 ml fermentation liquid of A. dieselolei T6-6 at temperature of 25° C. into a weighing cup, place the weighing cup in the center of the tray, press “▴” to make the platinum ring deep into 5 mm to 7 mm in the liquid, press “●” to stop; if the peak needs to be kept, firstly press “peak” button, and then press “▾”, the display value will increase gradually, and finally stay at the maximum; this maximum value is the actually measured value of surface tension of liquid, and then press “●” to stop, after the maximum value is recorded, press “reset” button. […]

Data set [13] can be described thus: Determination of biosurfactant MAD (Minimum Active Dose) by oil expansion experiment. The data set is classed as physicochemical. From the text:
Determination method of biosurfactant MAD (Minimum Active Dose) values: prepare different concentrations of water solution from pure biosurfactants to be determined, and measure the oil expansion activity through oil expansion experiment. With the decrease of concentration, the oil expansion ability of water solution becomes weaker and weaker, and completely disappears when the concentration decreases to a certain level. The amount of surfactant at the time of oil expansion ability disappearing is the MAD value.

Data set [14] can be described thus: Determination of biosurfactant CMC values. The data set is classed as physicochemical. To be noted: for CMC: water solution. From the text: Determination method of biosurfactant CMC values: prepare different concentrations of water solution from pure biosurfactants to be determined, and measure its surface tension with surface tension meter. With the increase of surface activity (concentration), the surface tension of water solution gradually […]. The surface tension stops decreasing when the concentration increases to a certain level. The amount of surfactant corresponding to this critical surface tension is CMC value.

The subject of data set [15] is aeromonas hydrophila. The data set is described as follows: Antibacterial activity, filter paper method. In kind it is cell-based. To be noted: bacteriostasis experiment.
Description: as §2
(§3) DH5 alpha, aeromonas hydrophila and Campbell vibrio.

Data set [16] concerns E. coli. DH5 alpha. Description: Antibacterial activity, filter paper method. In kind it is cell-based. The conditions noted are these: bacteriostasis experiment.
Description: as §2, §3

Data set [17] concerns Campbell vibrio. Description: Antibacterial activity, filter paper method. In kind it is cell-based. To be noted: bacteriostasis experiment.
Description: as §2, §3

Data set [18] in a line: Biosurfactant emulsifying property (emulsion stable value). In kind it is physicochemical. The procedure: In order to understand the emulsifying activity of lysine ester produced by strain Alcanivorax dieselolei T6-6, we determined the emulsifying stability value of lysine ester produced by strain Alcanivorax dieselolei T6-6 and the chemical surfactants Tween 20 and Triton X-100 against olive oil, n-hexane, dimethylbenzene, hexadecane and petroleum ether. Determination method of biosurfactant emulsifying property: add 5 ml commercially available diesel No. 0 and 5 ml surfactant solution (1%) into a test tube, treat it with ultrasonic generator at 800 W for 40 s, and measure the emulsion and oil phase at different times (0 to 24 hours). Emulsion stable value (Es %)=emulsified layer height (cm)/oil phase height (cm)×100. […] Lysine ester produced by strains Alcanivorax dieselolei T6-6 has a good emulsifying activity (83±1%) on olive oil, and can maintain […] at room temperature. Its emulsifying activity on four other organics is also more than 75%. Good emulsifying activity makes it greatly valuable in environmental pollution control.

Data set [19] is described as follows: Oil expansion activity at different temperatures and pH values. The data set is classed as physicochemical. The procedure: Determination method of biosurfactant oil expansion activity: Take a culture dish, add water, and add 0.1 ml hexadecane on the water surface to form oil film. Add the fermentation liquid from the shake flask to the center of oil film to make the central film squeezed to form a circle, the diameter of which positively correlates to the concentration and activity of the biosurfactant. Strains with cycle diameter more than 3 cm are retained for further study. Set pH value in the range of 2 to 10 to determine effect of pH on lysine ester produced by the strain Alcanivorax dieselolei T6-6. Oil expansion diameter varies from 3.6 to 3.9 for lysine ester produced by the strain Alcanivorax dieselolei T6-6 with small fluctuation. It has a good acid and base resistance, and the activity is the highest at pH=8. Considering the structure, it can be inferred that this material is alkaline. And also, when adding a few drops of ammonia expansion on the running TLC plate, the substance will expand more fully, which also proves that it is alkaline.
Treat the pure lysine ester produced by strain Alcanivorax dieselolei T6-6 at temperatures of 20° C., 40° C., 60° C., 80° C. and 100° C. for one hour, and then determine its activity. […] Good thermal stability makes it possible for the substance to be used in high temperature fields.

*1 amine or outer side, *2 acyl side, *3 side chain or, on linkers, in order; H or OH if unused. Where a SMILES comes first, the peptide text is derived from it. Bridges are numbered along the chain shown (N, C = ends). [ ]: non-standard residue; d: D form. X1 = CC(C)CCCCCCCCC[C@H](CC(=O)[*:1])O[*:2]

With `CCCCCCCCCCCCCC1CC(=O)N1CCCCC(N)C(=O)O` (centres unmarked) [2-amino-6-(2-oxo-4-tridecyl-azetidine-1-yl) hexanoic acid], the medicine-to-cell suppression rate in data set [1] is given as 92.74%; in data set [2] it was 67.32%. Moreover, the figures for the “cell culture fluid OD600” value in data set [1] (DMSO control 1.667) and in [2] (DMSO control 0.863) were 0.121 and 0.282, respectively. Besides, the Inhibition zone in data set [3] was 10.4 mm; in [4], 11.7 mm; in data set [5], 12.1 mm; in data set [6], 10.9 mm; in data set [7] it was 16.3 mm; in data set [8], 10.19 mm. Moreover, the results for the Inhibition zone in [9], in data set [10] and in [11] were 13.7 mm, 14.2 mm and 7.2 mm, respectively. Besides, in data set [12] (300 ul unconcentrated surfactant added to 20 ml DDW, water alone 78.6), the “surface tension of water after adding component” value is listed as 32.3. Also, the “surface tension reduced to” value in data set [12] (summary statement) is reported as 26-28 mN m-1. In [13], this molecule showed an MAD of 0.105 ± 0.05 µg. For the same molecule, the CMC value in data set [14] (summary statement) is 32 mg 1-1. The CMC in data set [14] was determined as 32 mg/L. Besides, the suppression effect result in data set [15], in data set [16] and in data set [17] was “no suppression effect” each time. Further, the “emulsifying activity compared with Tween 20 and Triton X-100” value in data set [18] (FIG. 12) was “higher emulsifying activity”. Moreover, the “emulsifying activity (emulsion stable value)” value in data set [18] (four other organics (n-hexane, dimethylbenzene, hexadecane, petroleum ether)) was “more than 75%”; in [18] (olive oil), 83±1%. Moreover, the “time emulsion is maintained” value in [18] (olive oil, room temperature) is listed as 48 h. In data set [19] (oil expansion experiment, pH 2 to 10), the “pH of highest activity” value was 8. Further, the oil expansion diameter result in data set [19] (treated at 121° C. for 15 minutes) is recorded as “about 3.5 cm”.
Consider Rhamnolipid, for which the CMC in data set [14] is 50 mg/L.
For the molecule Triton X-100, the MAD in data set [13] is 0.3 ± 0.08 µg.
As to `CCCCCCCCCCCCOS(=O)(=O)[O-].[Na+]` [SDS], the MAD in data set [13] is 6.0 ± 0.12 µg. Also, in [14], the CMC came out at 23 mg/L.
Molecule `CC(C)CCCCCCCCC[C@@H]1CC(=O)N[C@@H](CCC(=O)O)C(=O)N[C@@H](CC(C)C)C(=O)N[C@H](CC(C)C)C(=O)N[C@@H](C(C)C)C(=O)N[C@@H](CC(=O)O)C(=O)N[C@H](CC(C)C)C(=O)N[C@@H](CC(C)C)C(=O)O1` [Surfactin] (EL[dL]VD[dL]L; linker N-C via X1) came in with a CMC in data set [14] of 45 mg/L.
